Source: US10800815B2, “Kv1.3 potassium channel antagonists” (cgtx-Peptide Development GmbH, priority 2014, dated 2020)
Like-named read-outs stand apart in the source and are kept apart here.

What was measured:
[1] = tested on: white blood cells in peripheral blood; experiment: Haematology (WBC, neutrophil granulocytes, lymphocytes) in AIA rats; assay type: in vivo, rat
Method: For the blood withdrawal the animals were narcotized briefly, the tail was disinfected and the tail vein was punctured with a cannula, 50 μl of blood were withdrawn with a heparin coated pipette and mixed with 5 μl of a stabilising agent (CPD) and 1 μl heparin (1.5 U/μl diluted 1:4 in 0.9% NaCl).
White Blood Cells (WBC) were counted with a Coulter Counter in the automatic mode.
Blood samples were taken regularly for monitoring of hematological parameters. Haematological parameters were assessed in all animals weekly before induction, at day of induction and 10 days after induction (days −21, −14, −7, 0 and 10). […] Absolute counts of white blood cells (WBC), neutrophil granulocytes and lymphocytes were analyzed among others, the last two also stated in percentage of total WBC. EDTA whole blood of seven individuals from both vehicle and cgtx-544 peptide therapy group was measured with Sysmex XT-2000i.
For screening the state of health of all individuals, complete haemograms were used again. EDTA whole blood of seven individuals from both MTX high-dose and low-dose therapy groups were measured with Sysmex XT-2000i.V weekly before induction, at day of induction and 4 and 7 days after induction (day −21, −14, −7, 0, 4 and 7; MTX low-dose therapy group additionally on day −3, when i.v. application started).

hERG = biological target: T1, hERG (Homo sapiens, UniProt Q12809); experiment: Patchliner automated patch clamp of hERG currents in HEK cells, two-point screening (Example 2); assay type: cell-based; settings: for Normalized Block of hERG current: steady state at end of application
T1 construct: expressed in transfected cells; host or cells: HEK cells stably expressing hERG
T1 sequence (Q12809 whole entry): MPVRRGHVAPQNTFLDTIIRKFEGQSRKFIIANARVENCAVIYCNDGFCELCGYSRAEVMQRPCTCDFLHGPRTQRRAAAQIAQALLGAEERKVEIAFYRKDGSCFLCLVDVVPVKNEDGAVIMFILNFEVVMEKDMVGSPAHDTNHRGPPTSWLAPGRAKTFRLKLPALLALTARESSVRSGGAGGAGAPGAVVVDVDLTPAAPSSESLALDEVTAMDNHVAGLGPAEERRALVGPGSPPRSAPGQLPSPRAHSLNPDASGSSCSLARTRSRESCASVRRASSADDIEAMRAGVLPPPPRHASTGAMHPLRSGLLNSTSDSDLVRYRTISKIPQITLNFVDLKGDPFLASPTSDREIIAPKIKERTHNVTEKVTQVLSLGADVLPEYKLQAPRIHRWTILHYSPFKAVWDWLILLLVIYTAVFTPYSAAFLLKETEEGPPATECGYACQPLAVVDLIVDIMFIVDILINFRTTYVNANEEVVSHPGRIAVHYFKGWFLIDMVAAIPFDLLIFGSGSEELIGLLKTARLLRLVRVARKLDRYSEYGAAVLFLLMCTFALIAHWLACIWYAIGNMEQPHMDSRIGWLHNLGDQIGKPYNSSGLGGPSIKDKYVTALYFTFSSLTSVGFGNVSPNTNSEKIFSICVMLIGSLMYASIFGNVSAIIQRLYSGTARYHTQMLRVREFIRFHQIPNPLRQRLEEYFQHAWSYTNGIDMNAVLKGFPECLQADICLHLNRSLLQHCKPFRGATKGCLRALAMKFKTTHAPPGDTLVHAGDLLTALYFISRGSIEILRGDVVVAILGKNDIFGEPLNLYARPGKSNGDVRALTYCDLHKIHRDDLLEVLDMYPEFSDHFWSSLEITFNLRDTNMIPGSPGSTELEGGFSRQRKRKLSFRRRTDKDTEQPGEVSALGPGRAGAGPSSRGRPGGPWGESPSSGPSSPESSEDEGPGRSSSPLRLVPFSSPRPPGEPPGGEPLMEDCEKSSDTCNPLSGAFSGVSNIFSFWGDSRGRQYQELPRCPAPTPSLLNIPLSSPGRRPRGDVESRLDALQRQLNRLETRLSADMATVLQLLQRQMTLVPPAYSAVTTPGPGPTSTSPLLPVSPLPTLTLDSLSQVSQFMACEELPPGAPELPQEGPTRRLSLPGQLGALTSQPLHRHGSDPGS
Method: To determine binding to Kv1.3, Jurkat cells endogenously expressing Kv1.3 were used. For binding to hERG, HEK cells stably expressing hERG were used.
Cell culture was performed using standard cell culture techniques. In brief, cells were grown on 10 cm culture dishes or T75 culture flasks in DMEM-based media. With a confluence of about 60-80%, cells were split every 2-3 days. For recordings on the Patchliner (Nanion), Jurkat cells were resuspended and then spinned in a centrifuge. Before spinning, HEK cells were treated with Trypsin, to detach them from the dish surface. After spinning, cells were resuspended in external recording buffer to a density of approximately 1-2 million cells per ml.
Internal recording solution: 50 mM KCl • 10 mM NaCl • 60 mM KF • 20 mM EGTA • 10 mM HEPES/KOH, pH 7.2, (Osm: ˜290 mOsm)
5 mM Mg-ATP and 0.3 mM Na-GTP were added fresh to the internal solution and pH adjusted to 7.2.
External recording buffer: 140 mM NaCl • 4 mM KCl • 1 mM MgCl2 • 2 mM CaCl2 • 5 mM D-Glucose monohydrate • 10 mM HEPES/NaOH pH 7.4, (Osm: ˜298 mOsm) Compounds
Electrophysiological recordings were performed with a Patchliner, recording up to 8 channels, simultaneously. The Patchliner is an automated patch clamp system utilizing borosilicate glass chips (NPC-16) for planar patch clamp, and operating via the PatchControlHT software. NPC-16 chips with a resistance of 3-5 MΩ for Jurkat cells and 2-3 MΩ for HEK cells were used for recordings. During recordings, cells were kept in a “cell hotel” where they were periodically pipetted up and down to maintain viability. […]
For pharmacology on hERG, peak amplitude at the 2nd −40 mV step (tail current) was calculated using online analysis functions in PatchMaster. The leak (calculated from the 1st step to −40 mV) was subtracted from this peak to calculate the true peak and these could be plotted as a function of time.
Values were exported to Excel to calculate concentration response curves in Igor. […] A Hill equation was fitted to estimate the IC50 for each compound and IC50 was calculated relative to maximum block. […]

[2] = biological target: T2, Kv1.3 channels expressed in Sf21 insect cells (Homo sapiens, UniProt P22001); experiment: Stability ex vivo in rat blood plasma, read out as IC50 on Kv1.3 (Example 3); assay type: in vitro ADME
T2 construct: expressed in transfected cells; host or cells: Sf21 insect cells, baculovirus infection
T2 sequence (P22001 whole entry): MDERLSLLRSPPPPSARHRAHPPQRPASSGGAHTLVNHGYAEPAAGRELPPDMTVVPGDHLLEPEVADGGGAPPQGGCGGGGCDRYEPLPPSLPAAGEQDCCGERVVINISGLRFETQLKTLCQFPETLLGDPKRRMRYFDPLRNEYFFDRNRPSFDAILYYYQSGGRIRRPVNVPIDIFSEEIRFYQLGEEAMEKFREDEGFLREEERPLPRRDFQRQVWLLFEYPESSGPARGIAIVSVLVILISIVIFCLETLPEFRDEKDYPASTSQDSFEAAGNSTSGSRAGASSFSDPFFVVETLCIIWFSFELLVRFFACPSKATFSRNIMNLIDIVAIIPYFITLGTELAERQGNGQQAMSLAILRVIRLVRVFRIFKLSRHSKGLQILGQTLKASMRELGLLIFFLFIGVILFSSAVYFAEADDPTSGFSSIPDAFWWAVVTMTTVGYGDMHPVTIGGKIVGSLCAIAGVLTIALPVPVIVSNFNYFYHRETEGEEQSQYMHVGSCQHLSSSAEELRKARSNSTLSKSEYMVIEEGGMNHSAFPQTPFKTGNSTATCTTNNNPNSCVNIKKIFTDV
Method: The aim was to test the stability of the cgtx-544 peptide in blood plasma of mammals after different incubation times at room temperature (RT) and 37° C. Stability was defined as IC50 value of cgtx-544 after different incubation times at RT and 37° C. Blood plasma was prepared from fresh blood samples from healthy rats or humans. Heparin was added to fresh blood samples to prevent clogging. Plasma preparation was performed by centrifugation for 2 min at 2000×g at RT.
As the cgtx-544 peptide used in these experiments was incompletely folded, a higher IC50 than normal was determined.
To investigate the stability and activity in plasma the peptide was added to freshly prepared human and rat blood plasma at a final concentration of 2 μM. The samples were split into two aliquots and incubated at 37° C. and at room temperature (RT, 20° C.). For the electrophysiological analysis serial dilutions of the samples were prepared.

Kv1.5 = biological target: T3, Kv1.5 (Homo sapiens, UniProt P22460); experiment: Patch-clamp measurement of Kv1.5 channel inhibition (Example 1); assay type: cell-based; settings: up to a concentration of 10 μM
T3 construct: expressed in transfected cells; host or cells: Sf21 insect cells, baculovirus infection
T3 sequence (P22460 whole entry): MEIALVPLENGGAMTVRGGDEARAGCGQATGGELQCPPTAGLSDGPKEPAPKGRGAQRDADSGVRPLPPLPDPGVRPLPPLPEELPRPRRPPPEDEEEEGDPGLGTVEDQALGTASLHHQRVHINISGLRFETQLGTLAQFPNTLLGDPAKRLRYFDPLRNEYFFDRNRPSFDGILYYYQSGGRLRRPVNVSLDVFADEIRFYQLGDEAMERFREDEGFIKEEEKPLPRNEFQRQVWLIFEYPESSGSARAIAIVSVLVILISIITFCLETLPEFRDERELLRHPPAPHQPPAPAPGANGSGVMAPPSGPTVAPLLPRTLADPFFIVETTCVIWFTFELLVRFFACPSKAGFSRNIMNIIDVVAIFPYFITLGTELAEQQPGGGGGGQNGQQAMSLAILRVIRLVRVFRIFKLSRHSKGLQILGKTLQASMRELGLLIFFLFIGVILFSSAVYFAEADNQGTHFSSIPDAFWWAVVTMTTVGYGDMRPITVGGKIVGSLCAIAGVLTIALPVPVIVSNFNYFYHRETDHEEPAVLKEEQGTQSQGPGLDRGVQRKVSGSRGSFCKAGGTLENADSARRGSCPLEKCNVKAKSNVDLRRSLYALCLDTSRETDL
Method: FIGS. 1A-1F Measurement of Kv1.3 (FIGS. 1B and 1E), Kv1.5 (FIGS. 1C and 1F) and Kv1.1 (FIGS. 1A and 1D) channel inhibition by patch-clamp.
Peptides were dissolved at 1 μg/μl in 20 mM NaPO4 buffer pH 8.2 (1 mg in 1 ml folding buffer) and dialysed against the same buffer 3×1 L, Float-a-Lyzer cut off 500 Da (Spectrapor) at room temperature.
HsTx 1 binding was tested at various concentrations of e.g. 100 pM, 1 nM, 10 nM, 50 nM, 100 nM, 500 nM, and 1 μM—depending on the tested channel. Representative measurements for Kv 1.1, Kv1.3 and Kv1.5 are depicted in FIGS. 1 a), 1 b), and 1 c) respectively.
Cgtx-544 binding was tested at various concentrations of e.g. 1 nM, 10 nM, 50 nM, 100 nM, 1 μM, and 5 μM—depending on the tested channel. Representative measurements for Kv1.1, Kv1.3 and Kv1.5 are depicted in FIGS. 1 d), 1e), and 1) f, respectively.

CC[C@H](C)[C@H](NC(=O)[C@@H](N)[C@@H](C)O)C(=O)N[C@H](C(=O)N[C@@H](CC(N)=O)C(=O)N[C@H](C(=O)N[C@@H](CCCCN)C(=O)N[C@H]1CSSC[C@@H]2NC(=O)[C@H](CCCCN)NC(=O)CNC(=O)[C@H](Cc3ccc(O)cc3)NC(=O)[C@@H]3CCCN3C(=O)[C@@H]3CSSC[C@@H](C(=O)O)NC(=O)[C@H](CCCNC(=N)N)NC(=O)[C@H](CC(N)=O)NC(=O)[C@@H]4CSSC[C@H](NC(=O)[C@@H]5CCCN5C(=O)[C@@H]5CCCN5C(=O)[C@H](CC(C)C)NC(=O)[C@H](CSSC[C@H](NC(=O)[C@H](CCCCN)NC(=O)[C@H](CCCNC(=N)N)NC(=O)[C@H](CC(N)=O)NC(=O)[C@H](CCSC)NC2=O)C(=O)N[C@@H](CCCCN)C(=O)N4)NC(=O)[C@H](CCC(N)=O)NC(=O)[C@H](CCCCN)NC(=O)[C@@H]2CCCN2C(=O)[C@H](CO)NC(=O)[C@H]([C@@H](C)O)NC1=O)C(=O)N[C@@H](CCCCN)C(=O)N[C@@H](C)C(=O)N[C@@H](CCC(N)=O)C(=O)N[C@@H]([C@@H](C)O)C(=O)NCC(=O)N3)C(C)C)[C@@H](C)CC [Compound 7]
generalized immunosuppression ([1]; 1 mg/kg 1× daily i.v.): did not show a generalized immunosuppression
WBC, neutrophil granulocytes and lymphocytes, absolute and relative cell counts ([1]; curative treatment, 1 mg/kg daily i.v.): comparable to vehicle treated individuals
WBC, neutrophil granulocytes and lymphocytes, absolute and relative cell counts ([1]; preventive treatment, daily i.v. from day −3): comparable to vehicle treated individuals
Normalized Block of hERG current (hERG; 5 μM): 0.04
Normalized Block of hERG current (hERG; 10 μM): 0.07
effect on hERG current (hERG; hERG expressing HEK cells): only low effects
significant change in activity ([2]; 24 h, 37° C. and RT): could not be detected
activity after incubation in plasma ([2]; 48 h at RT): remained unchanged
activity after incubation in plasma ([2]; 14 days at 37° C.): no activity was detected
activity after incubation in plasma ([2]; 14 days at RT): unchanged activity
IC50 ([2]; read-out: IC50 on Kv1.3 after incubation in plasma, 48 h at 37° C.): 0.0578 µM
IC50 ([2]; read-out: IC50 on Kv1.3 in plasma, time point 0 h): 0.015 µM
binding to Kv1.5 (Kv1.5): no binding
